Test results published in US9850241B2, “Azaindole acetic acid derivatives and their use as prostaglandin D2 receptor modulators” (IDORSIA PHARMACEUTICALS LTD, priority 2014, dated 2017).

Tests used:
[1] = tested on: primary cultured rat hepatocytes; test: In vitro cytotoxicity in primary cultured rat hepatocytes; type: cell-based; settings: 24 h treatment, cell morphology and LDH leakage, highest concentration 300 μM; for LCC (lowest cytotoxic concentration): "300 s" = only slight cytotoxicity at the highest test concentration
Excerpt: In Vitro Cytotoxicity in Primary Cultured Rat Hepatocytes
Adult male Wistar rats were narcotized with sodium pentobarbital and hepatocytes were isolated according to a standard procedure, i.e. by in situ perfusion of the liver with a collagenase solution. The viability of the purified hepatocytes, checked by the trypan blue dye exclusion method was greater than 85%. The isolated hepatocytes were resuspended in standard Williams Medium E, without phenol red, supplemented (WME supp.) with transferrin (100 μg/ml), triiodothyronine (10 μg/ml), gentamicin (50 μg/ml), hydrocortison hemisuccinate (13.36 μg/ml), glucagon (5 μg/ml), HEPES (10 mM), inosin (10 μ/ml), insulin (10 μg/ml), streptomycin (100 μg/ml) and penicillin (100 U/ml) and 10% fetal bovine serum (FBS). The cells were plated in collagen-coated 24-well plates at an initial density of 2×10^5 cells/well. After 4 h for attachment to the culture-plates, the medium was aspirated and replaced by fresh WME supp. without FBS containing the test compounds and incubated for 24 h at 37° C. in a […] and 5% CO2 atmosphere. For each experiment, i.e., with each batch of hepatocytes, treatments with the test compounds were done in quadriplicate. Quadriplicate controls (treatment with the vehicle only) were also present on each culture plate.
Stock solutions of the test compounds were prepared in DMSO a few hours before treatment start. Appropriate dilutions of these stock solutions were added to the culture media just prior to the treatment in order to give final concentrations of 0, 3, 10, 30, 100 and 300 μM. The final concentration of the vehicle DMSO was 1% (v/v).
The morphology of the hepatocyte monolayers was monitored by light microscopy after 24 hours of exposure to the test compounds. Treatment related effects are described according to the following grading: • 0 No morphological alterations observed upon treatment when compared to the control cultures • 1-3 Treatment resulting in any morphological changes, e.g. intracellular granulation, vacuolization or cell death. Depending on the severity, these changes were regarded as slight (1), moderate (2) or strong (3). • K Treatment resulting in 100% dead cells and/or the complete detachment of the monolayer yielding a clear cell-free dish.
After 24 h treatment of the hepatocyte cultures, aliquots of culture medium were carefully collected and used for the analysis of lactate dehydrogenase (LDH) activity by spectrophotometry using the LDH cytotoxicity detection kit from Clontech (cat No. 630117, Mountain View, Calif., USA). For each experiment, additional cultures were used for the determination of total intracellular LDH activity at treatment start. For this purpose, 4 wells of cell culture per experiment were washed with cold saline before treatment start, sonicated in fresh medium and the homogenate was analyzed for total LDH activity. Enzyme activities in the culture media were assessed and expressed as percentage of the total activity present in the cultured hepatocytes at the beginning of the treatments.
The lowest cytotoxic concentration (LCC) and the no effect concentration (NoEC) are given for each compound, based on cell morphology and LDH leakage after 24 h treatment. LCC is defined as the lowest concentration of the test compound leading to a clear effect on the cultured rat hepatocytes (morphology grading 2 or 2-fold increase in LDH leakage). A LCC value of >300 μM indicates the absence of effect on both endpoints at the highest test concentration of 300 μM. […] NoEC is defined as the highest test concentration of the compound which was without an effect on the cultured rat hepatocytes (morphology and LDH leakage). • 3 . Results

hCRTH2 receptor [2] = target: T1, hCRTH2 receptor (Homo sapiens, UniProt Q9Y5Y4); test: hCRTH2 receptor membranes radioligand displacement assay (3H-PGD2); type: binding; settings: HEK293-hCRTH2 membranes, 3H-PGD2 2.5 nM, 0.1% BSA
T1 construct: expressed in transfected cells; host or cells: HEK293 (recombinant HEK293-hCRTH2), membrane fragments
T1 sequence (Q9Y5Y4 1-395): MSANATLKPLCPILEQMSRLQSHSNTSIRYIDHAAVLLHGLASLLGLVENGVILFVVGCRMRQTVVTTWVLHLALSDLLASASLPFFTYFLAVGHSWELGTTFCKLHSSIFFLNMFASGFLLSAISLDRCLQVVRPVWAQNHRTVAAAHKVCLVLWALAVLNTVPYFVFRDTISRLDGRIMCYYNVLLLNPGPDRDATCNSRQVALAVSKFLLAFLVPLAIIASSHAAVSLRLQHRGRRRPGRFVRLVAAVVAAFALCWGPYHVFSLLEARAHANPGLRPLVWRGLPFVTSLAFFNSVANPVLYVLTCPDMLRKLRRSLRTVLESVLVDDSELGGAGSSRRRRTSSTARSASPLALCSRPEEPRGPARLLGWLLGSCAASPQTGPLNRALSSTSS
Description: Preparation of hCRTH2 Receptor Membranes and Radioligand Displacement Assay:
(§1) First, recombinant HEK293-hCRTH2 cells were detached from culture plates into 5 ml buffer A/plate (Buffer A: 5 mM Tris, 1 mM MgCl2-6H2O pH=7.4) using a rubber policeman. Cells were then transferred into centrifugation tubes and centrifuged for 5 min at 400 g. The cell pellet was resuspended in the same buffer and tubes were frozen at 80° C. Cells were thawed and membrane fragments were generated by homogenization using a polytron homogenizer (30 seconds). The membrane fragments were then centrifuged at 3000 g for 20 minutes and resuspended in buffer C (Buffer C: 75 mM Tris, 25 mM MgCl2, 250 mM Saccharose pH 7.4). Aliquots of membrane fragements were stored at −20° C.
Binding assay was performed in a final assay volume of 250 μl. First, 25 μl of test compound, previously diluted in Binding-Buffer (Binding-Buffer: 50 mM Tris-Base, 100 mM NaCl, 1 mM EDTA, 0.1% BSA (protease free), 0.01% NaN3, 10 mM MnCl2 pH 7.0) was placed into each well. After addition of 75 μl Binding-Buffer, 50 μl of the radioligand ^3H-PGD2 (at 2.5 nM (220.000 dpm/well) from ANAWA ART0662) was added to each well. Binding assay was started by addition of 100 μl CRTH2 membrane fragments, reaching a final concentration of 20 μg/well. For non-specific binding, PGD2 was added to the reaction mixture to […] final concentration. This assay mix was incubated for 90 minutes at room temperature and then filtered through a GF/C filter 96-well plate which was pre-soaked for 3 hours in 0.5% polyethyleneimine (PEI). The filter-wells were washed three times with ice cold Binding-Buffer. Then, 40 μl of Microscint-40 (Packard) was added to each well and the retained radioactivity quantified in a Topcount (Packard).

hCRTH2 receptor [3] = target: T1, hCRTH2 receptor; test: Radioligand displacement assay in presence of human serum albumin (HSA); settings: Binding buffer with 0.5% HSA instead of 0.1% BSA, 3H-PGD2 2.5 nM
Description: as §1
Binding assay was performed in a final assay volume of 250 μl. […] After addition of 75 μl Binding-Buffer, 50 μl of the radioligand ^3H-PGD2 (at 2.5 nM (220.000 dpm/well) from ANAWA ART0662) was added to each well. Binding assay was started by addition of 100 μl CRTH2 membrane fragments, reaching a final concentration of 20 μg/well. For non-specific binding, PGD2 was added to the reaction mixture to […] final concentration. […] Then, 40 μl of Microscint-40 (Packard) was added to each well and the retained radioactivity quantified in a Topcount (Packard). […]

[4] = tested on: eosinophils activated by PGD2; test: Eosinophil shape change assay with human plasma; type: cell-based; settings: 50% human plasma, PGD2 100 nM, shape change by forward-scatter
Description: Eosinophil Shape Change Assay with human Plasma
After obtaining informed consent, blood samples were drawn by venipuncture according to the protocol approved by the ethics committee of Basel, Switzerland. Polymorphonuclear leukocytes (containing eosinophils, basophils and neutrophils) were isolated using the Polymorphprep™ method (Axis-Shield). In brief, anticoagulated whole blood was layered onto a Polymorphprep gradient (density 1.113 g/ml) and centrifuged at 500 g for 30 min. The polymorphonuclear cell fraction was harvested and depleted for erythrocytes by hypotonic saline lysis. […]
Immediately after fixation with paraformaldehyde, the samples were analyzed by FACSCanto flow cytometer (BD Biosciences) and target cells were identified by their forward-scatter (FSC) and side-scatter (SSC) characteristics. […] Shape change responses, indicative of eosinophil activation, were quantified as the percent of cells with an increased forward-scatter.

SMILES	NoEC (no effect concentration) [1] [µM]	LCC (lowest cytotoxic concentration) [1]	IC50 (hCRTH2 receptor [2]) [nM]	IC50 (hCRTH2 receptor [3]) [nM]	IC50 [4] [nM]
CN(c1nc2cc(Cl)ccc2o1)C1CCc2c(c3ncccc3n2CC(=O)O)C1 (stereo not shown) [drawing 12]	100	300 s	–	–	–
CN(c1nc2cc(F)ccc2o1)C1CCc2c(c3ncccc3n2CC(=O)O)C1 (stereo not shown) [Example 3, 2-(8-((5-fluorobenzo[d]oxazol-2-yl)(methyl)amino)-6,7,8,9-tetrahydro-5H-pyrido[3,2-b]indol-5-yl)acetic acid]	–	–	31	–	–
CN(c1nc2ccc(Cl)cc2o1)C1CCc2c(c3ncccc3n2CC(=O)O)C1 (stereo not shown) [drawing 11]	>300	>300^ μM	–	–	–
CN(c1nc2cc(F)ccc2o1)C1CCc2c(c3ncccc3n2CC(=O)O)C1 (stereo not shown) [drawing 13]	100	300 s	–	–	–
CN(c1nc2ccc(Cl)cc2o1)[C@H]1CCc2c(c3cc(F)ccc3n2CC(=O)O)C1	30	100^ μM	–	–	–
CN(c1nc2ccc(Cl)cc2o1)C1CCc2c(c3ncccc3n2CC(=O)O)C1 (stereo not shown) [Example 1, 2-(8-((6-chlorobenzo[d]oxazol-2-yl)(methyl)amino)-6,7,8,9-tetrahydro-5H-pyrido[3,2-b]indol-5-yl)acetic acid]	–	–	11	31	27
CN(c1nc2cc(Cl)ccc2o1)C1CCc2c(c3ncccc3n2CC(=O)O)C1 (stereo not shown) [Example 2, 2-(8-((5-chlorobenzo[d]oxazol-2-yl)(methyl)amino)-6,7,8,9-tetrahydro-5H-pyrido[3,2-b]indol-5-yl)acetic acid]	–	–	35	–	–
